Measurements: patent US20170210723A1, “MOLECULES HAVING PESTICIDAL UTILITY, AND INTERMEDIATES, COMPOSITIONS, AND PROCESSES, RELATED THERETO” (priority 2016, published 2017)

What was measured:
[1] = tested on: Beet Armyworm (Spodoptera exigua); experiment: Bioassays on BAW, 128-well diet tray assay; assay type: in vivo; settings: Spodoptera exigua, 168 h; 50 μg/cm^2 on artificial diet, second instar larvae, five to seven days; read-out: BAW % Control (or Mortality) rating
Method: Bioassays on BAW were conducted using a 128-well diet tray assay. One to five second instar BAW larvae were placed in each well (3 mL) of the diet tray that had been previously filled with 1 mL of artificial diet to which 50 μg/cm^2 of the test molecule (dissolved in 50 μL of 90:10 acetone-water mixture) had been applied (to each of eight wells) and then allowed to dry. Trays were covered with a clear self-adhesive cover and held at 25° C., 14:10 light-dark for five to seven days. Percent mortality was recorded for the larvae in each well; activity in the eight wells was then averaged. The results are indicated in the table entitled “Table ABC: Biological Results” (See Table Section).
(§1) Bioassays on BAW and CL were conducted according to the procedures outlined in Example A: Bioassays on Beet Armyworm (“BAW”) and Cabbage Looper (“CL”) using the indicated concentrations.

[2] = tested on: Cabbage Looper (Trichoplusia ni); experiment: Bioassays on CL, 128-well diet tray assay; assay type: in vivo; settings: Trichoplusia ni, 168 h; 50 μg/cm^2 on artificial diet, second instar larvae, five to seven days; read-out: CL % Control (or Mortality) rating
Method: Bioassays on CL were conducted using a 128-well diet tray assay.
One to five second instar CL larvae were placed in each well (3 mL) of the diet tray that had been previously filled with 1 mL of artificial diet to which 50 μg/cm^2 of the test molecule (dissolved in 50 μL of 90:10 acetone-water mixture) had been applied (to each of eight wells) and then allowed to dry. Trays were covered with a clear self-adhesive cover and held at 25° C., 14:10 light-dark for five to seven days. Percent mortality was recorded for the larvae in each well; activity in the eight wells was then averaged. The results are indicated in the table entitled “Table ABC: Biological Results” (See Table Section).
as §1

Row | SMILES | mortality at 50 µg/cm2 [1] | mortality at 50 µg/cm2 [2]
1 | CCCS(=O)(=O)C[C@@H](C)NC(=O)c1ccc(/C=C/C(c2cc(Cl)c(Cl)c(Cl)c2)C(F)(F)F)cc1C(F)(F)F (stereo partly drawn) [F79, N—((R)-1-(Propylsulfonyl)propan-2-yl)-4-((E)-4,4,4-trifluoro-3-(3,4,5-trichlorophenyl)but-1-en-1-yl)-2-(trifluoromethyl)benzamide] | 50 to 100% | 50 to 100%
2 | CC(C)S(=O)(=O)C[C@@H](C)NC(=O)c1ccc(/C=C/C(c2cc(Cl)c(Cl)c(Cl)c2)C(F)(F)F)cc1C(F)(F)F (stereo partly drawn) [F80, N—((R)-1-(Isopropylsulfonyl)propan-2-yl)-4-((E)-4,4,4-trifluoro-3-(3,4,5-trichlorophenyl)but-1-en-1-yl)-2-(trifluoromethyl)benzamide] | 50 to 100% | 50 to 100%
3 | CC(C)CS(=O)(=O)C[C@@H](C)NC(=O)c1ccc(/C=C/C(c2cc(Cl)c(Cl)c(Cl)c2)C(F)(F)F)cc1C(F)(F)F (stereo partly drawn) [F81, N—((R)-1-(Isobutylsulfonyl)propan-2-yl)-4-((E)-4,4,4-trifluoro-3-(3,4,5-trichlorophenyl)but-1-en-1-yl)-2-(trifluoromethyl)benzamide] | 50 to 100% | 50 to 100%
4 | CC(C)[S+]([O-])C[C@@H](C)NC(=O)c1ccc(/C=C/C(c2cc(Cl)c(Cl)c(Cl)c2)C(F)(F)F)cc1C(F)(F)F (stereo partly drawn) [F82, N-((2R)-1-(Isopropylsulfinyl)propan-2-yl)-4-((E)-4,4,4-trifluoro-3-(3,4,5-trichlorophenyl)but-1-en-1-yl)-2-(trifluoromethyl)benzamide] | 50 to 100% | 50 to 100%
5 | O=C(NCC1(SCC(F)(F)F)COC1)c1ccc(/C=C/C(c2cc(Cl)c(Cl)c(Cl)c2)C(F)(F)F)cc1C(F)(F)F (stereo not drawn) [F83, (E)-4-(4,4,4-Trifluoro-3-(3,4,5-trichlorophenyl)but-1-en-1-yl)-N-((3-((2,2,2-trifluoroethyl)thio)oxetan-3-yl)methyl)-2-(trifluoromethyl)benzamide] | 50 to 100% | 50 to 100%
6 | C[C@H](CS(=O)(=O)CC(F)(F)F)NC(=O)c1ccc(/C=C/C(c2cc(Cl)c(Cl)c(Cl)c2)C(C)(F)F)cc1C(F)(F)F (stereo partly drawn) [F84, 4-((E)-4,4-Difluoro-3-(3,4,5-trichlorophenyl)pent-1-en-1-yl)-N—((R)-1-((2,2,2-trifluoroethyl)sulfonyl)propan-2-yl)-2-(trifluoromethyl)benzamide] | 50 to 100% | 50 to 100%
7 | O=C(NCC1([S+]([O-])CC(F)(F)F)COC1)c1ccc(/C=C/C(c2cc(Cl)c(Cl)c(Cl)c2)C(F)(F)F)cc1C(F)(F)F (stereo not drawn) [F107, (E)-4-(4,4,4-Trifluoro-3-(3,4,5-trichlorophenyl)but-1-en-1-yl)-N-((3-((2,2,2-trifluoroethyl)sulfinyl)oxetan-3-yl)methyl)-2-(trifluoromethyl)benzamide] | 50 to 100% | 50 to 100%
8 | C[C@H](CSCC(F)(F)F)NC(=O)c1ccc(/C=C/C(c2cc(Cl)c(Cl)c(Cl)c2)C(C)(F)F)cc1C(F)(F)F (stereo partly drawn) [F108, 4-((E)-4,4-Difluoro-3-(3,4,5-trichlorophenyl)pent-1-en-1-yl)-N—((R)-1-((2,2,2-trifluoroethyl)thio)propan-2-yl)-2-(trifluoromethyl)benzamide] | 50 to 100% | 50 to 100%
9 | C[C@H](CS(=O)(=O)CC(F)(F)F)NC(=O)c1ccc(/C=C/C(c2cc(Cl)c(Cl)c(Br)c2)C(F)(F)F)cc1C(F)(F)F (stereo partly drawn) [F114, 4-((E)-3-(3-Bromo-4,5-dichlorophenyl)-4,4,4-trifluorobut-1-en-1-yl)-N—((R)-1-((2,2,2-trifluoroethyl)sulfonyl)propan-2-yl)-2-(trifluoromethyl)benzamide] | 50 to 100% | 50 to 100%
10 | C=Cc1cc(C(/C=C/c2ccc(C(=O)N[C@H](C)CS(=O)(=O)CC(F)(F)F)c(C(F)(F)F)c2)C(F)(F)F)cc(Cl)c1Cl (stereo partly drawn) [F115, 4-((E)-3-(3,4-Dichloro-5-vinylphenyl)-4,4,4-trifluorobut-1-en-1-yl)-N—((R)-1-((2,2,2-trifluoroethyl)sulfonyl)propan-2-yl)-2-(trifluoromethyl)benzamide] | 50 to 100% | 50 to 100%
11 | C[C@H](CSCC(F)(F)F)NC(=O)c1ccc(/C=C/C(c2cc(Cl)c(Cl)c(Br)c2)C(F)(F)F)cc1C(F)(F)F (stereo partly drawn) [F116, 4-((E)-3-(3-Bromo-4,5-dichlorophenyl)-4,4,4-trifluorobut-1-en-1-yl)-N—((R)-1-((2,2,2-trifluoroethyl)thio)propan-2-yl)-2-(trifluoromethyl)benzamide] | 50 to 100% | 50 to 100%
12 | C[C@H](C[S+]([O-])CC(F)(F)F)NC(=O)c1ccc(/C=C/C(c2ccc(Cl)c(Cl)c2)C(F)(F)F)cc1Br (stereo partly drawn) [F117, 2-Bromo-4-((E)-3-(3,4-dichlorophenyl)-4,4,4-trifluorobut-1-en-1-yl)-N-((2R)-1-((2,2,2-trifluoroethyl)sulfinyl)propan-2-yl)benzamide] | 50 to 100% | 50 to 100%
13 | C[C@H](CS(=O)(=O)CC(F)(F)F)NC(=O)c1ccc(/C=C/C(c2cc(Br)cc(OCC(F)(F)F)c2)C(C)(F)F)cc1C(F)(F)F (stereo partly drawn) [F120, 4-((E)-3-(3-Bromo-5-(2,2,2-trifluoroethoxy)phenyl)-4,4-difluoropent-1-en-1-yl)-N—((R)-1-((2,2,2-trifluoroethyl)sulfonyl)propan-2-yl)-2-(trifluoromethyl)benzamide] | 50 to 100% | 50 to 100%
14 | C[C@H](C[S+]([O-])CCF)NC(=O)c1ccc(/C=C/C(c2cc(Cl)c(Cl)c(Cl)c2)C(C)(F)F)cc1C(F)(F)F (stereo partly drawn) [F121, 4-((E)-4,4-Difluoro-3-(3,4,5-trichlorophenyl)pent-1-en-1-yl)-N-((2R)-1-((2-fluoroethyl)sulfinyl)propan-2-yl)-2-(trifluoromethyl)benzamide] | 50 to 100% | 50 to 100%
15 | C[C@H](CS(=O)(=O)CCF)NC(=O)c1ccc(/C=C/C(c2cc(Cl)c(Cl)c(Cl)c2)C(C)(F)F)cc1C(F)(F)F (stereo partly drawn) [F122, 4-((E)-4,4-Difluoro-3-(3,4,5-trichlorophenyl)pent-1-en-1-yl)-N—((R)-1-((2-fluoroethyl)sulfonyl)propan-2-yl)-2-(trifluoromethyl)benzamide] | 50 to 100% | 50 to 100%
16 | C[C@H](CS(=O)(=O)CC(F)(F)F)NC(=O)c1ccc(/C=C/C(c2ccc(C(F)(F)F)c(F)c2)C(C)(F)F)cc1C(F)(F)F (stereo partly drawn) [F123, 4-((E)-4,4-Difluoro-3-(3-fluoro-4-(trifluoromethyl)phenyl)pent-1-en-1-yl)-N—((R)-1-((2,2,2-trifluoroethyl)sulfonyl)propan-2-yl)-2-(trifluoromethyl)benzamide] | 50 to 100% | 50 to 100%
17 | C[C@H](CS(=O)(=O)CC(F)(F)F)NC(=O)c1ccc(/C=C/C(c2ccc(Cl)c(Cl)c2)C(F)(F)F)cc1Br (stereo partly drawn) [F124, 2-Bromo-4-((E)-3-(3,4-dichlorophenyl)-4,4,4-trifluorobut-1-en-1-yl)-N—((R)-1-((2,2,2-trifluoroethyl)sulfonyl)propan-2-yl)benzamide] | 50 to 100% | 50 to 100%
18 | CC(F)(F)C(/C=C/c1ccc(C(=O)NCC[S+]([O-])CCF)c(C(F)(F)F)c1)c1cc(Cl)c(Cl)c(Cl)c1 (stereo not drawn) [F129, (E)-4-(4,4-Difluoro-3-(3,4,5-trichlorophenyl)pent-1-en-1-yl)-N-(2-((2-fluoroethyl)sulfinyl)ethyl)-2-(trifluoromethyl)benzamide] | 50 to 100% | 50 to 100%
